Experiments:
[1] = test system: FADDdn, caspase-8dn, and HD exon-1 (Q25)-GFP; assay: Recruitment of polyglutamine interacting proteins; type: cell-based; conditions: HeLa co-transfected with Q-79
Source text: FIG. 7A is a graph of the effect of Congo red or ZVAD on the recruitment of caspase-8, a death domain, or proteins containing short polyglutamine repeats by expanded polyglutamine oligomerization in cells transfected with a Q79-GFP expression construct and a caspase-8 (GFP-casp 8DN), death domain (GFP-FADD DN), or short polyglutamine (HD-1 (Q25)-GFP) protein recruitment.
We co-transfected HeLa cells with Q-79 and one of the following expression constructs, GFP-FADDdn (GFP fused to the death domain of FADD adapter protein, that generates a dominant negative FADD polypeptide (missing the first 80 amino acids of the full length protein)), GFP-caspase-8dn (GFP-tagged C360S mutant of caspase-8, generating a dominant negative caspase-8 polypeptide; Sanchez et al., supra), or GFP-exon-1 (Q25) (a GFP fusion construct containing the first exon of human huntingtin protein, encoding a 25 polyglutamine stretch; Kazantsev et al., Proc. Natl. Acad. Sci. USA 96:[…], 1999), in the presence of ZVAD or of Congo red (FIGS. 7A and B).

R62 mice = assay: Rotarod motor performance, second study; type: in vivo; conditions: 10 rpm, maximum 210 seconds
Source text: FIG. 10F is a graph of the effect of PBS (vehicle; delivered intraperitoneally (IP)) or Congo red, infused intraperitoneally (IP), by intracerebroventricular cannula (ICV) implanted into the predetermined coordinates on the left ventricle, or by both routes, on motor performance, as assessed by latency to fall measurements using a rotorod.
(§1) In addition, the ability of Congo red to inhibit the formation as well as to disrupt preformed polyglutamine oligomers allowed us to examine the role of polyglutamine aggregates in neuronal dysfunction and degeneration characteristic of polyglutamine expansion diseases. In these studies, we used the animal model of Huntington's disease (R62), which expresses the truncated form of huntingtin with 139 CAG repeats Mangiarini et al. (supra). We took advantage of our finding that in addition to inhibiting polyglutamine oligomerization, Congo red also disrupts pre-formed oligomers, thus allowing assessment of the impact of Congo red on disease progression after formation of polyglutamine aggregates and the onset of symptoms. […]
The initial abnormal neurological signs of R62 mice include dyskinesia of the hindlimbs when mice were suspended by the tail, and irregular gait. […] The effect of Congo red on motor performance in R62 mice was also assessed by rotarod studies. […]

[2] = test system: HeLa cells transfected with the Q79-GFP plasmid; assay: Cell death by receptor-mediated pathways (TNF-α or anti-FasR with cycloheximide); type: cell-based; conditions: Congo red 100 μM, 72 hours
Method: FIG. 4B is a graph showing the effect of Congo red (CR) on the induction of cell death by receptor-mediated pathways. HeLa cells transfected with a Q79-GFP plasmid were treated with TNF-a or anti-FasR and cycloheximide (CHX), in the presence or absence of CR (100 μM). The amount of cell death was measured 72 hours after transfection.
The effect of Congo red on the induction of cell death by receptor-mediated pathways was also evaluated. Once again, HeLa cells were transfected with the Q79-GFP plasmid, and six hours later were administered Tumor Necrosis Factor-alpha (TNF-α) or anti-FasR in the presence of cycloheximide (CHX). The samples were then incubated with or without Congo red (100 μM). The amount of cell death was measured 72 hours after exposure to the compounds (FIG. 4B).

[3] = test system: wild type mice and R62 mice; assay: Tolerability of Congo red in mice; type: in vivo
Method: The latter procedure involved administration of 0.25 μl of the drug (1 mg/ml in 0.4% DMSO) per hour, for a period of at least 28 days. The treatment began at the latter part of the seventh week. When treatment began, although very little motor symptomology was observed, tremors were becoming apparent. Polyglutamine inclusions were readily detected at the beginning of treatment. The effect of Congo red on the polyglutamine-induced toxicity in muscle strength in the animal model R62 was quantified by the use of a rotorod.
as §1, with “symptoms. R62 transgenic mice and CBAxC57B1/6 F1 wild type littermates were obtained from Jackson Laboratories (Bar Harbor, Me.) at the age of five weeks.” for “symptoms.”

[4] = test system: R62 mice and wild-type mice; assay: Body weight; type: in vivo
Source text: FIG. 10A is a graph showing the effect of Congo red or PBS (vehicle) on body weight in HD transgenic mice between 9 and 11 weeks of age (top graph) and between 9 and 13 weeks of age (bottom graph). Mice were infused intraperitoneally (IP) or by intracerebroventricular cannula (ICV) implanted into the predetermined coordinates on the left ventricle, or by both routes.
as §1
One of the common features of Huntington's disease is severe weight loss, proposed to be due to metabolic defects as a part of the systemic pathology of the expanded polyglutamine repeat diseases. We monitored the body weight of mice before and after treatment (FIG. 10A).

Nc1c(/N=N/c2ccc(-c3ccc(/N=N/c4cc(S(=O)(=O)O)c5ccccc5c4N)cc3)cc2)cc(S(=O)(=O)O)c2ccccc12 [Congo red, diphenyldiazo-bis-alpha-napthylaminesulfonate]
recruitment of FADDdn, caspase-8dn, and HD exon-1 (Q25)-GFP [1]: decreased the concurrent recruitment of FADDdn, caspase-8dn, and HD exon-1 (Q25)-GFP | motor performance on rotarod (R62 mice): preserved | induction of cell death by receptor-mediated pathways [2]: does not alter the induction of cell death by receptor-mediated pathways | gross morphological abnormalities or symptoms ([3]; IP or ICV infusion, normal wild type mice or pre- or post-symptomatic R62 mice): no gross morphological abnormalities or induction of any obvious symptoms | drug toxicity ([3]; intraperitoneal injection up to 13 mg/kg every 48 hours for two weeks): no obvious drug toxicity | body weight, wild-type mice ([4]; 9 to 13 weeks, versus vehicle treated wild-type mice): no change in body weight | loss of body weight, expanded polyglutamine repeat expressing mice ([4]; ICV or IP route of delivery): significantly ameliorated
